Experimental data taken from US20230271980A1, “PREPARATION AND APPLICATION OF TRICYCLIC PYRIMIDINONE COMPOUND AND ITS COMPOSITION” (NEUSCO BIOTECH LIMITED, priority 2020, published 2023).

Columns and labels:
[1] = target: T1, Recombinant human Lp-PLA2 (Homo sapiens, UniProt Q13093); assay: Recombinant human Lp-PLA2 (rhLp-PLA2) assay (PED6 assay); assay type: biochemical; conditions: PED6 substrate; recombinant human Lp-PLA2 enzyme at 4 nM or 110 pM; 30 min pre-incubation; fluorescence ex 480/em 540; read-out: rhLp-PLA2 (pIC50) (converted)
T1 sequence (Q13093 22-441): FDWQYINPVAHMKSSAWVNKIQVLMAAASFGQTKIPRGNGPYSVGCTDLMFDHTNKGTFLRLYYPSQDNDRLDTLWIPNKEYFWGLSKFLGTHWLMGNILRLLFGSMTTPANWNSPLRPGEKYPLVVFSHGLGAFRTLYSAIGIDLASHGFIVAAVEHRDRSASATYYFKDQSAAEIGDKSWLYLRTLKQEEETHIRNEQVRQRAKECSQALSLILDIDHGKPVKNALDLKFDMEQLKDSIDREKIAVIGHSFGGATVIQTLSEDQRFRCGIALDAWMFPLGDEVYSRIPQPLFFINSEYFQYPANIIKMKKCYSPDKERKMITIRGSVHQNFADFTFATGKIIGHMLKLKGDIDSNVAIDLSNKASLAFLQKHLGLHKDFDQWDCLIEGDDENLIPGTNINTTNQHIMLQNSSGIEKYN
Text: (1) Recombinant Human Lp-PLA2 (rhLp-PLA2) Assay (Also Known as PED6 Assay)
PED6 is a fluorescently labeled phospholipid that can be purchased directly from Invitogene or Molecular Probes. There is a fluorescence-quenching p-nitrophenyl group on the Sn3 position, and a Bodipy fluorescein (FL) group on the sn2 position. Once it is cleaved by the Lp-PLA2 enzyme, the FL group is released, resulting in enhanced fluorescence.
Assay method: The compound to be tested (as shown in Table 1) was mixed with DMSO solution at a volume ratio of 1:3, diluted to prepare a source plate of a 384-well microplate. Then 0.01 μl of the compound was transferred via an ECHO liquid dispenser from the source plate to a 384-well Greiner 784076 plate, and 5 microliters of a buffer composed of 50 mM HEPES, pH7.4, 150 mM NaCl, 1 mM CHAPS (the buffer solution contains Recombinant human Lp-PLA2 enzyme at a concentration of 4 nM or 110 pM) was added to each well on the plate. The plate was centrifuged at 500 rpm for 10 seconds. After 30 minutes of pre-incubation, 5 microliters of the above buffer solution was added to a 384-well Greiner784076 plate, and the plate was centrifuged at 500 rpm for 10 seconds.

[2] = target: T2, Lp-PLA2 enzyme in human plasma (Homo sapiens, UniProt Q13093); assay: Human plasma Lp-PLA2 assay (Thio-PAF assay); assay type: biochemical; conditions: mixed human plasma; 2-thio-PAF substrate with CPM; 30 min pre-incubation; fluorescence ex 380/em 485; read-out: Thio-PAF (pIC50) (converted)
T2 construct: from tissue; host or cells: pooled (mixed) human plasma
T2 sequence (Q13093 22-441): T1 sequence (Q13093 22-441)
Method: (2) Human Plasma Lp-PLA2 Assay (Also Known as Thio-PAF Assay)
The human plasma assay was conducted using the sulphatide analog of PAF (phosphatidylcholine), which is hydrolyzed to produce phospholipids containing free sulfhydryl groups, subjected to Michael addition with CPM to generate fluorescence-enhancing maleimide.
Continuous quantitative analysis of thiol could be conducted by detecting the fluorescence intensity. This assay can be used to detect the inhibitory activity of the Lp-PLA2 inhibitor on the Lp-PLA2 enzyme in human plasma.
Assay Method: The compound to be tested (as shown in Table 2) was mixed with a DMSO solution in a volume ratio of (1:3), and diluted to prepare a source plate of a 384-well microplate. Then 0.01 μl of the compound was transferred via an ECHO liquid dispenser from the source plate to a 384-well Greiner 784076 low-volume plate, and 8 μl of pre-aliquoted and frozen mixed human plasma was added. The plate was centrifuged at 500 rpm for 10 seconds. After a 30 min pre-incubation, 2 μl of a substrate solution, and containing 2.5 mM 2-thio-PAF (a solution in ethanol), 32 μM CPM (a solution in DMSO) and a buffer of 3.2 mM N-ethylmaleimide (NEM) (a buffer solution consisting of 50 mM HEPES, pH7.4, 150 mM NaCl, 1 mM CHAPS) was added by a BRAVO liquid handling station to a 384-well Greiner 784076 low-volume plate. After 2 min, the reaction was quenched with 5 μl of 5% trifluoroacetic acid. After the plate was incubated at room temperature for 40 min in a dark place, the fluorescence intensity was read at ex 380/em 485 with an Envision microplate reader, and the XL fitting model in Excel was used to perform the curve analysis and QC analysis to calculate pIC50.

SMILES | IC50 [1] [nM] | IC50 [2] [nM]
O=c1nc(OCc2cc(F)c(F)cc2F)c2c3n1CCN3CCO2 [Compound 1] | 15.8 | 316
O=c1nc(OCc2cccc(F)c2F)c2c3n1CCN3CCO2 [Compound 2] | 10 | 158
O=c1nc(OCc2cc(F)c(F)c(F)c2)c2c3n1CCN3CCO2 [Compound 3] | 3.16 | 50.1
O=c1nc(OCc2cc(F)c(Oc3ccnc(C(F)(F)F)c3)c(F)c2)c2c3n1CCN3CCO2 [Compound 4] | 0.126 | 12.6
O=c1nc(OCc2cc(F)c(Oc3ccc(C(F)(F)F)nc3)c(F)c2)c2c3n1CCN3CCO2 [Compound 5] | 0.2 | 20
Cc1cc(Oc2c(F)cc(COc3nc(=O)n4c5c3OCCN5CC4)cc2F)ccn1 [Compound 6] | 0.158 | 15.8
Cc1ccc(Oc2c(F)cc(COc3nc(=O)n4c5c3OCCN5CC4)cc2F)cn1 [Compound 7] | 0.251 | 20
Cc1ncc(Oc2c(F)cc(COc3nc(=O)n4c5c3OCCN5CC4)cc2F)cn1 [Compound 8] | 1 | 39.8
O=c1nc(OCc2cc(F)c(Oc3ccc(C(F)(F)F)cc3)c(F)c2)c2c3n1CCN3CCO2 [Compound 9] | 0.158 | 10
O=c1nc(OCc2cc(F)c(Oc3cccc(OC(F)(F)F)c3)c(F)c2)c2c3n1CCN3CCO2 [Compound 10] | 0.2 | 15.8

More lines, now with the values ahead:

IC50 [1] [nM] | IC50 [2] [nM] | SMILES
0.1 | 10 | O=c1nc(OCc2cc(F)c(Oc3ccc(C(F)(F)F)c(Cl)c3)c(F)c2)c2c3n1CCN3CCO2 [Compound 11]
0.0794 | 15.8 | O=c1nc(OCc2cc(F)c(Oc3ccc(OC(F)(F)F)c(Cl)c3)c(F)c2)c2c3n1CCN3CCO2 [Compound 12]
0.158 | 12.6 | O=c1nc(OCc2cc(F)c(Oc3ccc(Cl)c(C(F)(F)F)c3)c(F)c2)c2c3n1CCN3CCO2 [Compound 13]
0.2 | 15.8 | Cc1cc(Oc2c(F)cc(COc3nc(=O)n4c5c3OCCN5CC4)cc2F)ccc1Cl [Compound 14]
0.0631 | 7.94 | O=c1nc(OCc2cc(F)c(Oc3ccnc(C(F)(F)F)c3)c(F)c2)c2c3n1CCCN3CCO2 [Compound 15]
0.0794 | 10 | O=c1nc(OCc2cc(F)c(Oc3ccc(C(F)(F)F)nc3)c(F)c2)c2c3n1CCCN3CCO2 [Compound 16]
0.0501 | 7.94 | Cc1ccc(Oc2c(F)cc(COc3nc(=O)n4c5c3OCCN5CCC4)cc2F)cn1 [Compound 17]
10 | 126 | O=c1nc(OCc2cccc(F)c2F)c2c3n1CCCN3CCO2 [Compound 18]
3.98 | 63.1 | O=c1nc(OCc2cc(F)c(F)c(F)c2)c2c3n1CCCN3CCO2 [Compound 19]
